pIC50: −log10 of the molar value. Where a name gives a salt, the structure may show the parent alone.

Data set [1] deals with C. freundii AmpC, TEM-1, CMY65. Description: MIC, CLSI broth microdilution, beta-lactam with or without BLI. The following applies: no BLI. Type of data set: cell-based. Here is the method:
(§1) The minimal inhibitory concentration (MIC) values against each organism and drug combination were determined using the Clinical and Laboratory Standards Institute guidelines (CLSI) broth microdilution methodology (CLSI M07-A10). The recommended quality control (QC) bacterial strains E. coli ATCC 25922, E. coli ATCC 35218 and Klebsiella pneumoniae ATCC 700603 were incorporated into each test according to the CLSI guidelines to assure that there was no variation between test dates (CLSI M100-S25). The MICs of these QC strains were within QC range on all test occasions. Drug containing plates were made using the master plate method. A cefpodoxime solution was prepared to 20× concentration and 2-fold serial dilutions were made in cation adjusted Mueller-Hinton Broth. Equal volumes of 20× examplar compounds at a fixed concentration were added to the master plate. 10 uL was stamped into daughter plates using a Tecan EVO robot. Organism suspensions were adjusted to a 0.5 McFarland standard and further diluted to yield a final inoculum between 3×10^5 and 7×10^5 colony-forming units (CFU)/mL. Bacterial inocula were made in sterile, cation adjusted Mueller-Hinton Broth (Beckton Dickinson). An inoculum volume of 1.1× concentration of 90 uL was added to wells (using a Tecan EVO robot). All inoculated microdilution plates were incubated in ambient air at 35° C. for 18-24 hours.
(§2) Following the procedure from Example 103, MICs were determined for several beta-lactams in presence of a fixed concentration (4 μg/mL) of exemplar compounds (Table 3) against 3 Enterobacteriaceae strains.
Background: Broth dilution looks for growth in wells or tubes with falling amounts of substance.

The next data set deals with E. coli WT (ATCC 25922). The data set is described as above. Type of data set: cell-based. The conditions noted are these: no BLI. The procedure:
as §1, §2

Data set [2] relates to Klebsiella pneumoniae SHV-18, OXA-2, OKP-6 (ATCC 700603). Described as above. It is filed as cell-based. The conditions noted are these: K. pneumoniae SHV-18, OXA-2, OKP-6 (ATCC 700603); for MIC of beta-lactam alone: no BLI. Here is the method:
as §1, §2

Data set [3] in a line: Stability in pH 7.4 buffer (no enzyme). The following applies: read-out: T1/2 pH 7.4 Buffer. Type of data set: physicochemical. Here is the method: (§3) The human intestinal S9 with the absence of PMSF, human liver S9, rat intestinal S9, and rat liver S9 preparations were obtained from Xenotech (Lenexa, Kans.). The 500-μL incubation solution contained 0.8 mg/mL of enzyme (or no enzyme for buffer stability), 10 μM of test compounds in 100 mM of HEPES buffer, pH 7.4. The hydrolysis reactions were conducted in a 1-mL glass insert (Analytical Sales, Pompton Plains, N.J.) in a shake water bath at 37° C. At 0, 2, 5, 10, 15, 30 and 60 min, the reaction was terminated by pipetting 50 μL incubate to a 96 DeepWell plate (Thermo Fisher Scientific, Rochester, N.Y.) containing 100 μL of acetonitrile with 250 ng/mL of Carbutamide (Sigma-Aldrich, St. Louis, Miss.) as the internal standard. The crashed solutions were then vortexed well followed by centrifuge at 4000 rpm for 15 min at 4° C. The extract was transferred to a new 96 DeepWell plate for LC-MS/MS analysis.
(§4) LC-MS/MS analysis was done using an AB Sciex QTrap 6500 mass spectrometer under positive ionization mode, coupled to a Schimadzu Nexera LC system.
(§5) A Waters Atlantis T3 (3 μm, 3.0×50 mm) column was used for separation. The mobile phase consisted 0.1% formic acid in water (A) and 0.1% formic acid in acetonitrile (B) with a flow rate set at 1.2 mL/min. For the prodrug analysis, the Multiple Reaction Monitoring (MRM) specific for each compound was set up so that both prodrug and its hydrolyzed active can be monitored simultaneously.
(§6) Half-lives listed are based on disappearance of starting ester.

Data set [4] in a line: Stability/conversion of esters in rat intestinal S9. It is filed as in vitro ADME. The procedure:
as §3, §4, §5, §6

Data set [5] in a line: Stability/conversion of esters in rat liver S9. Type of data set: in vitro ADME. The procedure: as §3, §4, §5, §6
The nature of data set [6]: Stability/conversion of esters in human intestinal S9. It is filed as in vitro ADME. The procedure:
as §3, §4, §5, §6

The nature of data set [7]: Stability/conversion of esters in human liver S9. Type of data set: in vitro ADME. Here is the method: as §3, §4, §5, §6
Data set [8] concerns the target TEM-1 (Class A beta-lactamase) (Escherichia coli, UniProt P62593). Put plainly: Inhibition of beta-lactamase enzymes (nitrocefin hydrolysis), TEM-1. It is filed as biochemical. The conditions noted are these: read-out: Class A TEM-1 60 min IC50, nitrocefin 100 μM. Here is the method:
(§7) A buffer consisting of 0.1 M sodium phosphate (pH 7.0), 10 mM NaHCO3, and 0.005% Triton X-100 was used for all enzymes. The chromogenic substrate nitrocefin (SynGene, Bangalore, India) was used at 100 μM. Enzyme activity was monitored by the 490 nm absorbance increase upon nitrocefin hydrolysis. Assays were performed in clear polystyrene 384-well plates (Greiner Bio-One, Monroe, N.C.). Absorbance was measured for 1 hour at 30-s intervals using a Spectramax absorbance plate reader (Molecular Devices, Sunnyvale, Calif.). Measurement of beta-lactamase inhibition by INHIBITOR employed serial 3-fold dilutions of the inhibitor in assay buffer, ranging from 100 μM to 62.7 pM. A background absorbance progress curve for a control lacking enzyme and inhibitor was subtracted from each progress curve.
(§8) The complete set of progress curves for one enzyme with all inhibitor concentrations was subjected to numerical integration with the program Kintek Global Kinetic Explorer (Kintek Corp, Snowshoe Pa.) to obtain a best-fit to the mechanism shown in Scheme 10.
(§9) where E, S, ES, P, I, and EI are the concentrations of the enzyme, nitrocefin, the enzyme-nitrocefin complex, the nitrocefin hydrolysis product, INHIBITOR, and the enzyme-INHIBITOR complex respectively. […] The values of k+2, k+3, and k−3 were fit. Concentration series offsets of the absorbance measurements were used to correct for slight absorbance baseline differences between wells. The parameter k+3 is equivalent to the second order rate constant kinact/Ki. In some cases, the inhibition was in rapid equilibrium on the experimental time scale, so that only the ratio k−3/k+3=Ki could be determined. Although k−3 represents reversal of inhibitor binding in Scheme 10, hydrolysis of the enzyme-inhibitor complex could not be excluded based on kinetic measurements.
(§10) Best-fit absorbance values from the above procedure at each time point for each compound concentration were exported to Excel.
(§11) where A is the best-fit absorbance without inhibitor and Ainhib is the best-fit absorbance in the presence of the inhibitor.
(§12) where [I] is the inhibitor concentration and n is the Hill coefficient. The Excel add-in XLfit (ID Business Solutions) was used for nonlinear regression.

In data set [9] the target is OXA-48 (Class D beta-lactamase) (Klebsiella pneumoniae, UniProt Q6XEC0). Description: Inhibition of beta-lactamase enzymes (nitrocefin hydrolysis), OXA-48. Type of data set: biochemical. The following applies: read-out: Class D OXA-48 60 min IC50, nitrocefin 100 μM. Here is the method: as §7, §8, §9, §10, §11, §12
Setting [10] is: intestinal S9, pH 7.4, read-out: T1/2 Rat Intestinal S9.
[11] abbreviates: liver S9, pH 7.4, read-out: T1/2 Rat Liver S9.
[12] abbreviates: intestinal S9 (without PMSF), pH 7.4, read-out: T1/2 Human Intestinal S9.
[13] abbreviates: liver S9, pH 7.4, read-out: T1/2 Human Liver S9.
[14] abbreviates: s9, pH 7.4, read-out: T1/2 Rat Intestinal S9.
Where [15] appears, read: s9, pH 7.4, read-out: T1/2 Rat Liver S9.
The mark [16] stands for this setting: s9, pH 7.4, read-out: T1/2 Human Intestinal S9.
The mark [17] stands for this setting: s9, pH 7.4, read-out: T1/2 Human Liver S9.

Sequence of TEM-1 (Class A beta-lactamase) (P62593 whole entry, looked up, species assumed): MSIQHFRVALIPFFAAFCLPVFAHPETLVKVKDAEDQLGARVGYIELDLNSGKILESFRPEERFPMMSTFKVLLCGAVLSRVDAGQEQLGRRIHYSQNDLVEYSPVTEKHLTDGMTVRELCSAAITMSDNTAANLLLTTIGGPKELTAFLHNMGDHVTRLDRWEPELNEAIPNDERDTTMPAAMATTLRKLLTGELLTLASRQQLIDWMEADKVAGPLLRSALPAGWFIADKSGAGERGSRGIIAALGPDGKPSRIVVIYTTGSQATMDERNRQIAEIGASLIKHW
Sequence of OXA-48 (Class D beta-lactamase) (Q6XEC0 whole entry, looked up, species assumed): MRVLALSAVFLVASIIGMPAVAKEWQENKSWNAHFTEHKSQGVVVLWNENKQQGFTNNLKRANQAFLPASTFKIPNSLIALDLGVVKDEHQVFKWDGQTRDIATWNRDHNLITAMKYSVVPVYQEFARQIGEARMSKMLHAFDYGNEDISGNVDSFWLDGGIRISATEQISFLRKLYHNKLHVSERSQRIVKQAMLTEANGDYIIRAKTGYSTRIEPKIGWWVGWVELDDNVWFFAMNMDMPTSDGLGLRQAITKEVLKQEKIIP

With `CC1(C)[C@H](NC(=O)/C(=N\OCC(=O)O)c2csc(N)n2)C(=O)N1OS(=O)(=O)O` [Tigemonam, tigemonam, reference compound], the “MIC of beta-lactam alone” value in data set [1] stood at 4 µg/mL; in the data set with E. coli WT (ATCC 25922), 1 µg/mL; in data set [2] it was 32 µg/mL.

Consider `N[C@@H](C(=O)N[C@@H]1C(=O)N2C(C(=O)O)=C(Cl)CC[C@H]12)c1ccccc1` [Loracarbef, loracarbef, reference compound], for which the “MIC of beta-lactam alone” value in data set [1] was more than 64 µg/mL; with E. coli WT (ATCC 25922), 2 µg/mL; in [2] it was 32 µg/mL.

As to `CCOC(=O)CON1C(=O)N2C[C@H]1C=C(C)[C@H]2C(N)=O` [Example 9, ethyl {[(2S,5R)-2-carbamoyl-3-methyl-7-oxo-1,6-diazabicyclo[3.2.1]oct-3-en-6-yl]oxy}acetate], the half-life at 10 μM in data set [3] (HEPES buffer without enzyme) came to 18.3 min; in data set [4] (setting [10]), 27.3 min; in data set [5] (setting [11]) it was 1.4 min; in data set [6] (setting [12]), 17.8 min; in data set [7] (setting [13]), 2.9 min.

As a reminder, the pIC50 is −log10 of the IC50, conventionally taken in molar units. With `CC1=C[C@@H]2CN(C(=O)N2O[C@@H](F)C(=O)O)[C@@H]1C(=O)NCCNS(N)(=O)=O` [Example 75, (2S)-2-fluoro-2-[[(2S,5R)-3-methyl-7-oxo-2-[2-(sulfamoylamino)ethyl-carbamoyl]-1,6-diazabicyclo[3.2.1]oct-3-en-6-yl]oxy]acetic acid lithium salt], the pIC50 in data set [8] is 7.08; in data set [9], 6.38. Also, the “MIC of cefpodoxime in presence of BLI” value in data set [2] (BLI at fixed 4 μg/mL) came to 0.125 µg/mL.

Take `CCOC(=O)C(F)(F)ON1C(=O)N2C[C@H]1C(C)=C[C@H]2C(N)=O` [Example 90, ethyl 2-(((2S,5R)-2-carbamoyl-4-methyl-7-oxo-1,6-diazabicyclo[3.2.1]oct-3-en-6-yl)oxy)-2,2-difluoroacetate]: the half-life at 10 μM stood at 2.9 min in [3] (HEPES buffer without enzyme); 3.3 min in [4] (setting [10]); 0.7 min in data set [5] (setting [11]); 1 min in data set [6] (setting [12]); 0.7 min in data set [7] (setting [13]).

`C=CCOC(=O)[C@@H](F)ON1C(=O)N2C[C@H]1C=C(C)[C@H]2C(N)=O` [Example 47, allyl (2R)-2-[[(2S,5R)-2-carbamoyl-3-methyl-7-oxo-1,6-diazabicyclo[3.2.1]oct-3-en-6-yl]oxy]-2-fluoro-acetate]: the half-life at 10 μM in data set [3] (HEPES buffer without enzyme) is 12 min; in [4] (setting [10]), 11 min; in data set [5] (setting [11]) it was 1.8 min; in [6] (setting [12]) it was 8.2 min; in data set [7] (setting [13]) it was 2.3 min.

Take `CC[C@@H](C)OC(=O)[C@@H](F)ON1C(=O)N2C[C@H]1C=C(C)[C@H]2C(N)=O` [Example 22, (2R)-(R)-sec-butyl 2-(((2S,5R)-2-carbamoyl-3-methyl-7-oxo-1,6-diazabicyclo[3.2.1]oct-3-en-6-yl)oxy)-2-fluoroacetate]: the half-life at 10 μM worked out at 38 min in [3] (buffer); 56 min in data set [4] (setting [14]); 9.2 min in data set [5] (setting [15]); 43 min in data set [6] (setting [16]); 4.6 min in [7] (setting [17]).

On to `CCOC(=O)[C@@H](F)ON1C(=O)N2C[C@H]1C=C(C)[C@H]2C(=O)NCO` [Example 86, ethyl (2R)-2-fluoro-2-[[(2S,5R)-2-(hydroxymethylcarbamoyl)-3-methyl-7-oxo-1,6-diazabicyclo[3.2.1]oct-3-en-6-yl]oxy]acetate], for which the half-life at 10 μM in data set [3] (HEPES buffer without enzyme) was found to be 39 min; in [4] (setting [10]), 43 min; in data set [5] (setting [11]) it was 23 min; in data set [6] (setting [12]), 36 min; in data set [7] (setting [13]), 24 min.

With `CCOC(=O)[C@H](F)ON1C(=O)N2C[C@H]1C=C(C)[C@H]2C(=O)NOC[C@@H]1CCCN1` [Example 60, ethyl (2S)-2-fluoro-2-(((2S,5R)-3-methyl-7-oxo-2-((((S)-pyrrolidin-2-yl)methoxy)carbamoyl)-1,6-diazabicyclo[3.2.1]oct-3-en-6-yl)oxy)acetate TFA salt], the half-life at 10 μM in data set [3] (HEPES buffer without enzyme) amounted to 29 min; in [4] (setting [10]), 21 min; in data set [5] (setting [11]) it was 10 min; in data set [6] (setting [12]), 22 min; in data set [7] (setting [13]), 9.9 min.

`CC1=C[C@@H]2CN(C(=O)N2O[C@H](F)C(=O)OCc2ccccc2)[C@@H]1C(N)=O` [Example 54, (2R)-benzyl 2-(((2S,5R)-2-carbamoyl-3-methyl-7-oxo-1,6-diazabicyclo[3.2.1]oct-3-en-6-yl)oxy)-2-fluoroacetate]: the half-life at 10 μM in data set [3] (buffer) stood at 22 min; in [4] (setting [14]) it was 19 min; in [5] (setting [15]), 0.9 min; in [6] (setting [16]), 5 min; in [7] (setting [17]), 1.9 min.

For the molecule `CC1=C[C@@H]2CN(C(=O)N2O[C@H](F)C(=O)OCOC(=O)C(C)(C)C)[C@@H]1C(N)=O` [Example 64, [(2R)-2-[[(2S,5R)-2-carbamoyl-3-methyl-7-oxo-1,6-diazabicyclo[3.2.1]oct-3-en-6-yl]oxy]-2-fluoro-acetyl]oxymethyl 2,2-dimethylpropanoate], the half-life at 10 μM in data set [3] (HEPES buffer without enzyme) is 1.2 min; in data set [4] (setting [10]) it was 1.1 min; in data set [5] (setting [11]) it was less than 1 min; in data set [6] (setting [12]), less than 1 min; in [7] (setting [13]), less than 1 min.

(Values after patent publication US10800778B2 (Entasis Therapeutics Limited, priority 2016, dated 2020).)
